Reference: ChEMBL document CHEMBL6182884, “Synthesis and structure-activity evaluation of a series of novel tricyclic STING activators” (Eur J Med Chem, 2025)

target: Stimulator of interferon genes protein (Homo sapiens, UniProt Q86WV6); experiment: Activation of human STING R232 variant transfected in HEK293T cells expressing ISRE.ISG54 luciferase reporter assessed as secretory reporter gene activity by measuring luciferase level incubated for 20 hrs by luminometer; format: cell-based
Sequence (Q86WV6 whole entry, looked up): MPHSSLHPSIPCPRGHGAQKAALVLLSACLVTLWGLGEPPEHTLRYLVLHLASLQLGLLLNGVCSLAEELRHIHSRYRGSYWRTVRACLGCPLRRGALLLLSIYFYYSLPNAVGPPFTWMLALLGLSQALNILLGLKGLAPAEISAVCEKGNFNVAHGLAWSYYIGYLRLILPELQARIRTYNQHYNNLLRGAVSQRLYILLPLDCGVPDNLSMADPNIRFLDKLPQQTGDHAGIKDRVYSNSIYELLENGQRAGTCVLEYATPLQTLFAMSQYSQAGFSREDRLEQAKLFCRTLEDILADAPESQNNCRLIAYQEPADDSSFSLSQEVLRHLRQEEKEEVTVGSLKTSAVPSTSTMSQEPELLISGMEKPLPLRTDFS

| EC50 | Structure (SMILES) |
| --- | --- |
| 40 nM | C[C@@H]1Sc2ccc(C(=O)NCc3cc4cc(F)ccc4o3)cc2-n2c(-c3ccc(F)cc3)nnc21 |
| 1090 nM | C[C@H]1Sc2ccc(C(=O)NCc3cc4cc(F)ccc4o3)cc2-n2c(-c3ccc(F)cc3)nnc21 |
| 2080 nM | O=C(NCc1c(F)cc(F)cc1F)c1ccc2c(c1)-n1c(nnc1-c1ccccc1)CS2 |
| 414 nM | CC1Sc2ncc(C(=O)NCc3cc4ccccc4o3)cc2-n2c(-c3ccccc3)nnc21 (racemic) |
| 1540 nM | CC1Sc2ccc(C(=O)NCc3c(F)cc(F)cc3F)cc2-n2c(Cc3ccccc3)nnc21 (racemic) |
| 48 nM | CC1Sc2ccc(C(=O)NCc3cc4cc(F)ccc4o3)cc2-n2c(-c3ccc(F)cc3)nnc21 (racemic) |
| 373 nM | CC1Sc2ccc(C(=O)NCc3c(F)cc(F)cc3F)cc2-n2c(-c3ccc(F)cc3)nnc21 (racemic) |
| 53 nM | CC1Sc2ccc(C(=O)NCc3cc4cc(F)ccc4o3)cc2-n2c(-c3ccc(F)cc3F)nnc21 (racemic) |
| 1560 nM | Cc1cccc(-c2nnc3n2-c2cc(C(=O)NCc4c(F)cc(F)cc4F)ccc2SC3C)c1 (racemic) |
| 65 nM | CC1Sc2ccc(C(=O)NCc3cc4ccc(F)cc4o3)cc2-n2c(-c3ccc(F)cc3)nnc21 (racemic) |
| 45 nM | CC1Sc2ccc(C(=O)NCc3cc4cc(F)c(F)cc4o3)cc2-n2c(-c3ccc(F)cc3)nnc21 (racemic) |
| 2880 nM | CC1Sc2ccc(C(=O)NCc3c(F)cc(F)cc3F)cc2-n2c(-c3cccc(F)c3)nnc21 (racemic) |
| 1630 nM | CC1Sc2ccc(C(=O)NCc3c(F)cc(F)cc3F)cc2-n2c(-c3ccncc3)nnc21 (racemic) |
| 804 nM | CC1Sc2ccc(C(=O)NCc3c(F)cc(F)cc3F)cc2-n2c(-c3ccccc3F)nnc21 (racemic) |
| 1970 nM | CC1Sc2ccc(C(=O)NCc3c(F)cc(F)cc3F)cc2-n2c(-c3ccc(Cl)cc3F)nnc21 (racemic) |
| 3810 nM | Cc1ccc(-c2nnc3n2-c2cc(C(=O)NCc4c(F)cc(F)cc4F)ccc2SC3C)cc1 (racemic) |
| 111 nM | CC1Sc2ncc(C(=O)NCc3cc4cc(F)ccc4o3)cc2-n2c(-c3ccc(F)cc3)nnc21 (racemic) |
